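Each compound was tested at five concentrations against cells in 96-well plates for 48 hours. TGI marks complete inhibition of growth.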
How the values were obtained:
Test in all cases: growth of human tumour cells (NCI), 48 h
IGROV1 ovarian = test system: IGROV1 ovarian
HOP-62 NSCLC = test system: HOP-62 NSCLC
HOP-92 NSCLC = test system: HOP-92 NSCLC
SNB-19 CNS = test system: SNB-19 CNS
OVCAR-8 ovarian = test system: OVCAR-8 ovarian
SF-268 CNS = test system: SF-268 CNS
TK-10 renal = test system: TK-10 renal
NCI-H522 lung = test system: NCI-H522 lung
786-0 renal = test system: 786-0 renal
RPMI-8226 leukemia = test system: RPMI-8226 leukemia

| SMILES | TGI (IGROV1 ovarian) | TGI (HOP-62 NSCLC) | TGI (HOP-92 NSCLC) | TGI (SNB-19 CNS) | TGI (OVCAR-8 ovarian) | TGI (SF-268 CNS) | TGI (TK-10 renal) | TGI (NCI-H522 lung) | TGI (786-0 renal) | TGI (RPMI-8226 leukemia) |
| --- | --- | --- | --- | --- | --- | --- | --- | --- | --- | --- |
| [N-]=[N+]=C(C(=O)OCC#CCOC(=O)C(=[N+]=[N-])S(=O)(=O)c1ccccc1)S(=O)(=O)c1ccccc1 | > 10 µM | > 10 µM | > 10 µM | > 10 µM | > 10 µM | > 10 µM | > 10 µM | > 10 µM | > 10 µM | > 10 µM |
| N#CN=C1c2ccccc2C(=NC#N)c2cc(CO)ccc21 | 90.7 µM | > 100 µM | 77 µM | > 100 µM | > 100 µM | > 100 µM | > 100 µM | > 100 µM | > 100 µM | 31 µM |
| COc1ccc(OC)c(C(=O)/C=C/c2cc(O)c(O)cc2F)c1 | 34.2 µM | 29.2 µM | > 67 µM | > 35 µM | 24.3 µM | > 44.9 µM | 21.6 µM | 0.948 µM | 17.6 µM | 7.83 µM |
| NC(CCl)=NC1CN2CCC1CC2 (stereo not given) | > 100 µM | > 100 µM | > 100 µM | > 100 µM | > 100 µM | > 100 µM | > 100 µM | 58 µM | > 100 µM | > 100 µM |
| Cc1ccc(C(=O)Cc2nc3ncccc3[nH]c2=O)cc1 | > 100 µM | 48.4 µM | 48.1 µM | > 100 µM | 53.1 µM | 99.7 µM | 57.4 µM | > 100 µM | 45.3 µM | > 100 µM |
| O=c1[nH]nc(-c2ccc([N+](=O)[O-])cc2)n1/N=C/c1ccc([N+](=O)[O-])cc1 | > 100 µM | > 100 µM | > 100 µM | > 100 µM | > 100 µM | > 100 µM | > 100 µM | > 100 µM | > 100 µM | > 100 µM |
| O=C(Nc1ccc(Cl)cc1)c1cccc([N+](=O)[O-])c1O | > 80.3 µM | 9.13 µM | 4.72 µM | > 50.9 µM | > 69.8 µM | > 85 µM | > 44.4 µM | 6.36 µM | > 56.7 µM | 7.2 µM |
| CC(=O)c1cc2c(s1)C(=O)c1scc(C(C)=O)c1C2=O | 1.37 µM | 1.97 µM | 0.93 µM | 2.42 µM | 0.63 µM | 1.5 µM | 9.9 µM | 1.28 µM | 1.9 µM | 1.08 µM |
| c1ccc2c(c1)CCN(C1=NCCO1)C2 | > 10 µM | > 10 µM | > 10 µM | > 10 µM | > 10 µM | > 10 µM | > 10 µM | > 10 µM | > 10 µM | > 10 µM |
| COC(=O)C1=COC(C)C2C[n+]3ccc4c([nH]c5ccccc54)c3CC12 (stereo not given) | > 100 µM | > 100 µM | > 100 µM | > 100 µM | > 100 µM | > 100 µM | > 100 µM | > 100 µM | > 100 µM | > 100 µM |
| OCCN1CN(c2nc(N3CN(CCO)C3)nc(N3CN(CCO)C3)n2)C1 | 85.6 µM | 39.2 µM | 53 µM | 49.6 µM | > 100 µM | 48.3 µM | 78.7 µM | 30 µM | 60.7 µM | > 100 µM |
| COC(=O)C1=C(O)C(C(=O)OC)[C@]2(O)[C@H](C(=O)OC)[C@H]1C[C@@H](c1cccc(OC)c1)[C@H]2C(=O)OC (stereo not given in full) | > 100 µM | 89.5 µM | > 100 µM | 81.7 µM | > 100 µM | > 100 µM | > 100 µM | 33.3 µM | 56.1 µM | > 100 µM |
| CCN(CC)c1ccc2c(c1)Oc1ccc(N(C(C)=O)c3ccccc3)cc1C21OC(=O)c2ccccc21 (stereo not given) | > 100 µM | > 100 µM | > 100 µM | > 100 µM | > 100 µM | > 100 µM | > 100 µM | > 100 µM | > 100 µM | > 100 µM |
| NNC(=O)Cc1cccnc1 | > 100 µM | > 100 µM | > 100 µM | > 100 µM | > 100 µM | > 100 µM | > 100 µM | > 100 µM | > 100 µM | > 100 µM |
| O=c1[nH]nc(Cc2ccccc2)n1/N=C/c1ccc([N+](=O)[O-])o1 | 15.7 µM | 22 µM | 30.1 µM | 38.1 µM | 19.2 µM | 11.7 µM | 17.6 µM | 3.87 µM | 22.7 µM | 21.2 µM |
| CC(/C=N/N(C)C1=NCCCCN1)=N/N(C)C1=NCCCCN1 | > 100 µM | > 100 µM | > 100 µM | > 100 µM | > 100 µM | > 100 µM | > 100 µM | > 100 µM | > 100 µM | > 100 µM |

| SMILES | TGI (IGROV1 ovarian) | TGI (HOP-62 NSCLC) | TGI (HOP-92 NSCLC) | TGI (SNB-19 CNS) | TGI (OVCAR-8 ovarian) | TGI (SF-268 CNS) | TGI (TK-10 renal) | TGI (NCI-H522 lung) | TGI (786-0 renal) | TGI (RPMI-8226 leukemia) |
| --- | --- | --- | --- | --- | --- | --- | --- | --- | --- | --- |
| CN(C)c1ccc(/C=N/n2c(-c3ccccc3)nc3ccccc3c2=O)cc1 | > 100 µM | > 100 µM | > 100 µM | > 100 µM | > 100 µM | > 100 µM | > 100 µM | > 100 µM | > 100 µM | > 100 µM |
| O=C1c2n[nH]nc2C(=O)c2n[nH]nc21 | > 100 µM | > 100 µM | > 100 µM | > 100 µM | > 100 µM | > 100 µM | > 100 µM | > 100 µM | > 100 µM | > 100 µM |
| O=C(O)CS(=O)c1ccc2c3c(cccc13)C(=O)c1ccccc1-2 (stereo not given) | > 100 µM | > 100 µM | > 100 µM | > 100 µM | > 100 µM | > 100 µM | > 100 µM | > 100 µM | > 100 µM | > 100 µM |
| O=C1OC(C2Cc3ccccc3C2=O)c2ccccc21 (stereo not given) | > 100 µM | > 100 µM | > 100 µM | > 100 µM | > 100 µM | > 100 µM | > 100 µM | > 100 µM | > 100 µM | > 100 µM |
| COc1ccc(C2c3cc4c(cc3OC(NNC(N)=O)C2C)OCO4)cc1 (stereo not given) | > 100 µM | > 54.4 µM | 78.7 µM | > 100 µM | > 57.9 µM | > 100 µM | > 100 µM | 18.3 µM | 37.5 µM | 20.2 µM |
| Cc1ccc(C2(N3CCCC3)OC(C)(C)c3cccc4cccc2c34)cc1 (stereo not given) | 29.8 µM | 32.3 µM | 21.2 µM | 29.8 µM | 29.8 µM | 25.8 µM | 38.6 µM | 25.6 µM | 37.6 µM | 71.9 µM |
| N#Cc1ccc(/C=N/NC(=O)CSCC(=O)N/N=C/c2ccc(C#N)cc2)cc1 | > 100 µM | > 100 µM | > 100 µM | > 100 µM | > 100 µM | > 100 µM | > 100 µM | > 100 µM | > 100 µM | > 100 µM |
| O=C(O)C(F)(F)C(F)(F)C(F)(F)C(F)(F)C(=O)O | > 100 µM | > 100 µM | > 100 µM | > 100 µM | > 100 µM | > 100 µM | > 100 µM | > 100 µM | > 100 µM | > 100 µM |
| CN1[C@@H]2CCCC[C@H]2N(C)P1(=O)C(O)/C=C/c1ccccc1 (stereo not given in full) | > 100 µM | > 100 µM | > 100 µM | > 100 µM | > 100 µM | > 100 µM | > 100 µM | > 100 µM | > 100 µM | > 100 µM |
| COC(=O)c1c(O)ccc2c1c1c(n2Cc2ccc(OC)cc2)C(=O)c2ccccc2C1=O | 21.4 µM | 33.2 µM | 25.3 µM | > 100 µM | 11.7 µM | 55 µM | > 100 µM | 17.1 µM | 28.5 µM | 1.9 µM |
| CC(=O)OC(CC(C)C)P1(=O)N(CC(C)(C)C)[C@@H]2CCCC[C@H]2N1CC(C)(C)C (stereo not given in full) | 24.2 µM | 29.9 µM | 10.7 µM | 21.9 µM | 21.9 µM | 29.3 µM | 24.7 µM | 19.2 µM | 23.9 µM | 15.3 µM |
| CC(=O)[C@H]1CC[C@H]2[C@@H]3CCC4=CC(=O)CC[C@]4(C)[C@H]3CC[C@]12C | 71.4 µM | 45.4 µM | 71.3 µM | > 100 µM | 47.3 µM | 69.8 µM | 52.2 µM | 31 µM | 54.2 µM | 26.3 µM |
| N#Cc1nc(C(F)(F)F)oc1N | > 100 µM | > 100 µM | > 100 µM | > 100 µM | > 100 µM | > 100 µM | > 100 µM | > 100 µM | > 100 µM | > 100 µM |
| O=C(O)CCC(C(=O)O)N1C(=O)c2ccccc2C1=O (stereo not given) | > 100 µM | > 100 µM | > 100 µM | > 100 µM | > 100 µM | > 100 µM | > 100 µM | > 100 µM | > 100 µM | > 100 µM |
| O=c1c2ncn(C3CCCCO3)c2n(-c2ccccc2)c(=S)n1-c1ccccc1 (stereo not given) | 69.2 µM | 29.9 µM | 31 µM | > 69.4 µM | > 100 µM | > 92.2 µM | 83 µM | > 86.7 µM | > 86.2 µM | > 100 µM |

From PubChem BioAssay (NCI)
